“And” between values parts separate entries of the source, which are not always exact repeats. Equal entries are not always repeated. Where two headings read alike, the source gives them in different places.
Experiments:
Tg244440 [1] = target: T1, Tg244440 (Toxoplasma gondii, UniProt A0A125YNC9); assay: [3H]-guanine uptake and its inhibition in T. brucei TbNB-KO procyclics expressing Tg244440 (clone F5); format: cell-based; details: for Ki: competition with 50 nM [3H]-guanine, Cheng-Prusoff; for Ki / Inhibition of [3H]-guanine transport by pyrimidines: 30 s; for ΔG^0 (Gibbs free energy of interaction): calculated from Km or Ki, ΔG0 = −RTln(Ki); for Rate of [3H]-guanine uptake, +Tg244440: clone F5; for Inhibition of [3H]-guanine transport by pyrimidines: inhibitor at 1 mM, 0.1 μM [3H]-guanine
T1 sequence (A0A125YNC9 1-462): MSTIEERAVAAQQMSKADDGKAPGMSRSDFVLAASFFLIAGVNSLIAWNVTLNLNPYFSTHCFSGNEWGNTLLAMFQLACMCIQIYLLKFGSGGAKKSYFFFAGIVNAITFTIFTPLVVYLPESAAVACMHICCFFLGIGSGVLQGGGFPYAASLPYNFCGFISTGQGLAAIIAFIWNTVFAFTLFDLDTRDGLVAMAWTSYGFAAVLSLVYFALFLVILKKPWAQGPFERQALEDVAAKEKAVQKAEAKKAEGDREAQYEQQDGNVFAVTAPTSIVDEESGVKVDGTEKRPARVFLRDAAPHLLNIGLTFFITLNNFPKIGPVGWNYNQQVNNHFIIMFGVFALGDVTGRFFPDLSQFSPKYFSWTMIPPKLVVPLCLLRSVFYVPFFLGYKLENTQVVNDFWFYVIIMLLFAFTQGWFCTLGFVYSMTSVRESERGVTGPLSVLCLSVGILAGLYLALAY
Description: (§1) Briefly, PCF cells of T. brucei in logarithmic growth were harvested by centrifugation at 1000× g for 10 min, washed twice in AB and then resuspended in fresh buffer at a final density of 10^8 cells/mL. […] Immediately after finishing the assay, all tubes were flash-frozen in liquid nitrogen and the cell pellets were cut into scintillation vials and lysed with a solution of 2% SDS for one hour under agitation. Then, 3 mL of scintillation fluid (Scintilogic U, Lablogic) was added to each vial and left agitating overnight on a rocking platform. The next morning, the vials were vigorously shaken to ensure optimal mixing and the scintillation was measured in a 300SL (Hidex) scintillation counter. All assays were carried out in triplicate. All experimental data such as Km, Ki and Vmax values are the average and SEM of at least three separate experiments, each in triplicate, unless otherwise indicated.
(§2) Background scintillation was measured in vials containing no cells or radiolabeled substrate, and counts associated with extracellular radiolabel were calculated from samples where cells were briefly incubated with the same concentration of radiolabel, but in the presence of saturating concentrations of non-radiolabeled substrate before centrifugation through oil. The average of the three control replicates was subtracted from each data point.

T. gondii = details: cited from earlier work
TgAT2 = target: TgAT2; parameters: method as in PMID 12865082; details: cited from earlier work
[2] = tested on: TbNBT-KO cells transfected with the empty vector (EV); assay: [3H]-guanine and [3H]-hypoxanthine uptake in TbNBT-KO cells transfected with the empty vector (EV); format: cell-based, Trypanosoma brucei; details: empty vector cells
Description: as §1, §2

Tg244440 [3] = target: T1, Tg244440; format: cell-based; details: 0.1 μM [3H]-permeant, 60 s, clones B11, F5 and G10
Description: Figure 2 Uptake of radiolabelled nucleosides and nucleobases by in three clonal lines of T. brucei NB-KO procyclics, expressing Tg244440 in pHD1336. EV, empty vector control. Radiolabel concentration was 0.1 µM and uptake was measured over 60 s, in triplicate (average and SEM shown). Statistically significant differences between the control and the Tg244440-expressing cells were established using Student’s unpaired t-test. *, p < 0.05, **, p < 0.01, ***, p < 0.001.
as §1

TgAT1 = details: for its substrates; cited from earlier work
inosine transporter = details: tachyzoites; read-out: apparent Km; cited from earlier work
O=c1[nH]cnc2nc[nH]c12 = assay: cells, lysate or membranes; details: other: 0.10 µM [3H]-hypoxanthine, 30 s, Michaelis-Menten; pH 7.3
[4] = substrate: Nc1nc2nc[nH]c2c(=O)[nH]1; assay: [3H]-guanine uptake and its inhibition in T. brucei TbNB-KO procyclics expressing Tg244440 (clone F5); format: cell-based, Toxoplasma gondii; details: other: 0.05 µM [3H]-guanine, 30 s, Michaelis-Menten; pH 7.3
[5] = [Permeant] 25 μM (unlabelled guanine to saturate the transporter)

OC[C@@H]1CC[C@H](n2cnc3c(O)ncnc32)O1 [2′,3′-dideoxyinosine]
Ki (Tg244440 [1]; Ki): 698 ± 52 µM
ΔG^0 (Gibbs free energy of interaction) (Tg244440 [1]): -4.3 kcal/mol
δ(ΔG^0) relative to Inosine (Tg244440 [1]; relative to Inosine): 3.06 kcal/mol
Activity against T. gondii (in words) (T. gondii): active in vitro and in vivo

Nc1ncnc2c1ncn2[C@@H]1O[C@H](CO)[C@@H](O)[C@@H]1O [Adenine arabinoside (Ara-A), Adenine arabinoside]
Affinity for Tg244440 (in words) (Tg244440 [1]): low affinity
ΔG^0 (Gibbs free energy of interaction) (Tg244440 [1]): -4.78 kcal/mol
Ki (Tg244440 [1]; read-out: Ki): 310 ± 14 µM
δ(ΔG^0) relative to Adenosine (Tg244440 [1]): 0.896 kcal/mol
Activity against T. gondii (in words) (T. gondii): moderately active
Ki (TgAT2): 2.9 µM

Nc1nc2nc[nH]c2c(=O)[nH]1 [Guanine]
Rate of [3H]-guanine uptake, +Tg244440 (Tg244440 [1]; [Permeant] 0.05 μM, over 60 s): 0.037 ± 0.003 pmol(10^7 Cells)^−1s^−1
Rate of [3H]-guanine uptake, +Tg244440 (Tg244440 [1]; [Permeant] 0.05 μM, over 60 s, listed as guanine): 0.037 pmol(10^7 Cells)^−1s^−1
Rate of [3H]-guanine uptake, +Tg244440 (Tg244440 [1]; [5]): 0.00092 ± 0.00067 pmol(10^7 Cells)^−1s^−1
Sum of δ(ΔG^0) for the 7-deaza and 9-deaza analogues (Tg244440 [1]; analogues of the named nucleobase): 14.2 kJ/mol
ΔG^0 (Gibbs free energy of interaction) (Tg244440 [1]): -8.05 kcal/mol
Rate of [3H]-guanine uptake, EV ([2]; [Permeant] 0.05 μM, over 60 s): 0.00059 pmol(10^7 Cells)^−1s^−1
Rate of [3H]-guanine uptake, EV [2, 5]: 0.0015 ± 0.0002 pmol(10^7 Cells)^−1s^−1
Uptake of radiolabelled permeant in Tg244440 clones compared to empty vector (Tg244440 [3]): highly significant increases

O=c1[nH]cnc2c1ncn2[C@@H]1O[C@H](CO)[C@@H](O)[C@H]1O [Inosine]
Km (TgAT1): > 100 µM
Ki (Tg244440 [1]; Ki): 4.05 ± 1.37 µM
ΔG^0 (Gibbs free energy of interaction) (Tg244440 [1]): -7.36 kcal/mol
δ(ΔG^0) relative to Hypoxanthine (Tg244440 [1]): 0.335 kcal/mol
Km (TgAT2; tachyzoites): 0.77 µM
Km (inosine transporter): 81 µM

O=[N+]([O-])c1ccc(CSc2ncnc3c2ncn3[C@@H]2O[C@H](CO)[C@@H](O)[C@H]2O)cc1 [S-(4-nitrobenzyl)-6-thioinosine (NBMPR), S-(4-nitrobenzyl)-6-thioinosine]
Ki (Tg244440 [1]; Ki): 78 ± 6 µM
ΔG^0 (Gibbs free energy of interaction) (Tg244440 [1]): -5.59 kcal/mol
δ(ΔG^0) relative to Adenosine (Tg244440 [1]): 0.0837 kcal/mol

O=c1[nH]c(=O)c2nc[nH]c2[nH]1 [Xanthine]
Ki (Tg244440 [1]; Ki): 42.4 ± 4.2 µM
ΔG^0 (Gibbs free energy of interaction) (Tg244440 [1]): -5.95 kcal/mol
δ(ΔG^0) relative to Guanine (Tg244440 [1]; relative to Guanine): 2.08 kcal/mol
δ(ΔG^0) relative to Hypoxanthine (Tg244440 [1]): 1.74 kcal/mol

Cc1cn([C@H]2C[C@H](O)[C@@H](CO)O2)c(=O)[nH]c1=O [thymidine]
Uptake of radiolabelled permeant in Tg244440 clones compared to empty vector (Tg244440 [3]): only slightly increased

Cc1c[nH]c(=O)[nH]c1=O [thymine]
Inhibition of [3H]-guanine transport by pyrimidines (Tg244440 [1]): significant inhibition

O=c1ccn([C@@H]2O[C@H](CO)[C@@H](O)[C@H]2O)c(=O)[nH]1 [uridine]
Inhibition of [3H]-guanine transport by pyrimidines (Tg244440 [1]): significant inhibition

Tg244440 (Toxoplasma gondii ME49)
Km (O=c1[nH]cnc2nc[nH]c12): 1 µM and 0.79 ± 0.06 µM

B1: Tg244440 (Toxoplasma gondii ME49) (protein)
chain: T1 sequence (A0A125YNC9 1-462)
Km [4]: 1 µM
